Reference: publication PMC7456892 (Frontiers in Plant Science, 2020)
“Also recorded” adds a separate entry of the source. Where no end group is shown, it is not given here.

What was measured:
pepsin [1] = assay: SGF (200 mg NaCl, 10 units pepsin/µg test protein, pH 1.2); conditions: 37°C, up to 60 min
F. graminearum = type: cell-based, Fusarium graminearum isolate 73B1A; conditions: growth assay, 25°C, dark, 24 h, OD 595 nm
pepsin [2] = molecular target: pepsin (Sus scrofa, UniProt P00791); assay: Simulated Gastric Fluid (SGF) pepsin digestion assay; type: in vitro ADME; conditions: pH 1.2
Sequence of pepsin (Sus scrofa, UniProt P00791) (P00791 60-385): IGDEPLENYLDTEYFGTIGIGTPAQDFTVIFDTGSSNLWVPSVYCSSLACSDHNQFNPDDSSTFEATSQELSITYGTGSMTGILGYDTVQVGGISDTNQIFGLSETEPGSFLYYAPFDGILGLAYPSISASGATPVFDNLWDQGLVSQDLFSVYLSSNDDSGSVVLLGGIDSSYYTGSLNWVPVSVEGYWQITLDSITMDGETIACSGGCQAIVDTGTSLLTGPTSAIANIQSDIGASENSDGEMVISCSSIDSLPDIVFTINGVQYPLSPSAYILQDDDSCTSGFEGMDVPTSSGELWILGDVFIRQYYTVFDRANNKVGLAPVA
Experimental: Protein samples were analyzed for degradation by SDS PAGE followed by staining with RAPIDStain (Calbiochem) for 1 h after intense washing with ultrapure water. Digestion products from the SGF assays were analyzed by Matrix-assisted laser desorption/ionization time of flight (MALDI TOF) mass spectrometry. Samples were pre-incubated with 0.5 μl of 40 mM DTT for 20 min on the ground steel plate to reduce disulfide bonds. The samples were subsequently mixed with 2,5-dihydroxybenzoic acid (DHB) and the mass to charge ratio was measured for each sample using a Bruker Daltonics Ultraflex III MALDI-TOF/TOF Mass Spectrometer.

C. graminicola = type: cell-based, Colletotrichum graminicola isolate Carroll-1A-99; conditions: growth assay, 25°C, dark, 40 h, OD 595 nm
pancreatin = conditions: 37°C, up to 60 min

Experimental for trypsin (pancreatin): Aliquots (320 µl) of each of SIF (60 mM KH2PO4, pH 7.5, 12 mg/ml pancreatin), SIF minus pancreatin and ultrapure water were added to individual glass vials with stir bars on a submersible stir plate (2mag MIX drive, Sigma Aldrich) in a 37°C water bath for 2 min before the addition of 40 µl of test protein (5 mg/ml) to each vial. Azoalbumin (A-2382, Sigma Aldrich) at a final concentration of 10 mg/ml in ultrapure water was used as the positive control for protease digestion. Protein degradation was assessed by SDS PAGE as described above.

In the case of “KDCLTRRHGFQGRCLFDRQCAHVCRSDGFIGGQCRGPLRKCFCSRPC”, the not cleaved (pepsin [1]) is reported as “stable in the SGF assay for more than 60 min”.

“NaD1-C3S-C47S: NaD1 variant lacking the Cys3-Cys47 (fourth) disulfide bond (RESKTESNTFPGICITKPPCRKACISEKFTDGHCSKILRRCLCTKPS; not fully specified; ends and bridges not checked; UniProt Q8GTM0 26-72, looked up, variant C3S C47S)” was tested, and the “Antifungal activity against F. graminearum compared with wild type defensin, in words” value (F. graminearum) was “as active as unmodified NaD1”, the “Digestion in SGF, result in words” value (pepsin [2]) was “partially digested” and the “Antifungal activity against C. graminicola compared with wild type defensin, in words” value (C. graminicola) was “as active as unmodified NaD1”. The “Size of peptides after digestion in SIF” value (trypsin (pancreatin)) was “less than 2300 Da”.

For “NaD1: class II plant defensin from the ornamental tobacco Nicotiana alata, purified from flowers (RECKTESNTFPGICITKPPCRKACISEKFTDGHCSKILRRCLCTKPC; ends and bridges not checked; cysteine pairing not given here; UniProt Q8GTM0 26-72, looked up)”, the “Mass of fragments Da at 60 min” value (pepsin [2]) was 5296 Da.

With “RECKTESHRFKGPCITKPPCRKACISEFFTDGHCSKILRRCLCTKPC” the cleaved bond (pepsin [1]) was “F28-F29, 10 min; also recorded: T16-K17, 10 min”.

For “RECKTESHRFKGPCITKPPCRKACISEKFTDGHCSKILRRCLCTKPC”, the not cleaved (pepsin [1]) was “not degraded in SGF (60 min)”.

For “RECKTESNTFPGICITKPPCRKACISEKFTDGHCSKILRRCLCTKPC”, the not cleaved (pepsin [1]) was “stable in the SGF assay for more than 60 min; also recorded: not cleaved” and the not cleaved (pancreatin) was “not digested by SIF (60 min)”.

With “RECKTESRAFALECITKPPCRKACISEKFTDGHCSKILRRCLCTKPC” the cleaved bond (pepsin [1]) was “A9-F10, 60 min”.

“RESKTESRAFALECITKPPCRKACISEFFTDGHCSKILRRCLCTKPS” was tested, and the cleaved bond (pepsin [1]) was “A9-F10, within 1 minute; also recorded: F28-F29, within 1 minute”.
